# Reference: the supplement of paper PMC10307832
# Columns and labels:
# Assay in all cases: relative viability (nuclei count vs DMSO), 5 days (fraction); higher = more cells survive
# [1] = compound: COc1cc2ncn(-c3cc(OCc4ccccc4C(F)(F)F)c(C(N)=O)s3)c2cc1OC
# In short: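 For viability, nuclei in each treated well were divided by nuclei in vehicle wells and the median across plates was taken. Lung cancer cell lines in 1536-well plates were pinned with five library-drug doses (not always all listed) spaced by √10, cultured 5 days without medium change, and imaged at 4× after Hoechst staining, with plates passing only at control CV below 25% and at least one doubling.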
# [2] = compound: COc1cc2ncn(-c3cc(OCc4ccccc4C(F)(F)F)c(C(N)=O)s3)c2cc1OC + CCNC(=O)c1noc(-c2cc(C(C)C)c(O)cc2O)c1-c1ccc(CN2CCOCC2)cc1 [Luminespib] (partner 0.01 µM)
# In short: (§1)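 Values are medians from duplicate plates. Each reflects relative viability, defined as the nuclei count of treated wells over that of vehicle wells. Lung cancer cell lines in 1536-well plates were pin-tool dosed one day after seeding with one drug alone or with a fixed anchor-drug dose plus five library-drug doses (not always all listed) in √10 steps, then fixed, stained and imaged at 4× after 5 days.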
# [3] = compound: COc1cc2ncn(-c3cc(OCc4ccccc4C(F)(F)F)c(C(N)=O)s3)c2cc1OC + COc1cc2c(Oc3ccc(NC(=O)C4(C(=O)Nc5ccc(F)cc5)CC4)cc3F)ccnc2cc1OCCCN1CCOCC1 [Foretinib] (partner 0.25 µM)
# In short: as §1
# [4] = compound: COc1cc2ncn(-c3cc(OCc4ccccc4C(F)(F)F)c(C(N)=O)s3)c2cc1OC + COc1cccc2cc(-c3nc([C@H]4CC[C@H](C(=O)O)CC4)n4ncnc(N)c34)[nH]c12 [OSI-027] (partner 0.5 µM)
# In short: as §1
# [5] = compound: COc1cc2ncn(-c3cc(OCc4ccccc4C(F)(F)F)c(C(N)=O)s3)c2cc1OC + Cc1cc(Nc2cc(N3CCN(C)CC3)nc(Sc3ccc(NC(=O)C4CC4)cc3)n2)n[nH]1 [Tozasertib] (partner 0.1 µM)
# In short: as §1
# [6] = compound: COc1cc2ncn(-c3cc(OCc4ccccc4C(F)(F)F)c(C(N)=O)s3)c2cc1OC + Cc1nc(Nc2ncc(C(=O)Nc3c(C)cccc3Cl)s2)cc(N2CCN(CCO)CC2)n1 [Dasatinib] (partner 0.075 µM)
# In short: as §1
# [7] = compound: COc1cc2ncn(-c3cc(OCc4ccccc4C(F)(F)F)c(C(N)=O)s3)c2cc1OC + N=C(N)NC(=N)NCCc1ccccc1 [Phenformin] (partner 250 µM)
# In short: as §1
# [8] = compound: COc1cc2ncn(-c3cc(OCc4ccccc4C(F)(F)F)c(C(N)=O)s3)c2cc1OC + CC(=O)Nc1cccc(-n2c(=O)n(C3CC3)c(=O)c3c(Nc4ccc(I)cc4F)n(C)c(=O)c(C)c32)c1 [Trametinib] (partner 0.02 µM)
# In short: as §1
# [9] = compound: COc1cc2ncn(-c3cc(OCc4ccccc4C(F)(F)F)c(C(N)=O)s3)c2cc1OC + CC(=O)c1c(C)c2cnc(Nc3ccc(N4CCNCC4)cn3)nc2n(C2CCCC2)c1=O [Palbociclib] (partner 0.5 µM)
# In short: as §1
# [10] = compound: COc1cc2ncn(-c3cc(OCc4ccccc4C(F)(F)F)c(C(N)=O)s3)c2cc1OC + NC(=O)Nc1cc(-c2cccc(F)c2)sc1C(=O)N[C@H]1CCCNC1 [AZD7762] (partner 0.2 µM)
# In short: as §1
# [11] = compound: COc1cc2ncn(-c3cc(OCc4ccccc4C(F)(F)F)c(C(N)=O)s3)c2cc1OC + Nc1nc2[nH]cc(CCc3ccc(C(=O)N[C@@H](CCC(=O)O)C(=O)O)cc3)c2c(=O)[nH]1 [Pemetrexed] (partner 0.2 µM)
# In short: as §1
# [12] = compound: COc1cc2ncn(-c3cc(OCc4ccccc4C(F)(F)F)c(C(N)=O)s3)c2cc1OC + Nc1ncn([C@H]2C[C@H](O)[C@@H](CO)O2)c(=O)n1 [Decitabine] (partner 2 µM)
# In short: as §1
# [13] = compound: COc1cc2ncn(-c3cc(OCc4ccccc4C(F)(F)F)c(C(N)=O)s3)c2cc1OC + O=C(CCCCCCC(=O)Nc1ccccc1)NO [Vorinostat] (partner 1 µM)
# In short: as §1
# [14] = compound: COc1cc2ncn(-c3cc(OCc4ccccc4C(F)(F)F)c(C(N)=O)s3)c2cc1OC + O=C(c1cc(Cc2n[nH]c(=O)c3ccccc23)ccc1F)N1CCN(C(=O)C2CC2)CC1 [Olaparib] (partner 8 µM)
# In short: as §1
cell line,measurement,setting,value
NCI-H1623,relative viability,[1]; 0.05 µM,0.962
same,relative viability,[1]; 0.1581 µM,0.975
same,relative viability,[1]; 0.5 µM,0.694
same,relative viability,[1]; 1.581 µM,0.439
same,relative viability,[1]; 5 µM,0.758
same,relative viability,[2]; first compound 0.05 µM,0.49
same,relative viability,[2]; first compound 0.1581 µM,0.485
same,relative viability,[2]; first compound 0.5 µM,0.435
same,relative viability,[2]; first compound 5 µM,0.37
same,relative viability,[3]; first compound 0.05 µM,0.824
same,relative viability,[3]; first compound 0.1581 µM,0.723
same,relative viability,[3]; first compound 0.5 µM,0.62
same,relative viability,[3]; first compound 1.581 µM,0.426
same,relative viability,[3]; first compound 5 µM,0.694
same,relative viability,[4]; first compound 0.05 µM,0.478
same,relative viability,[4]; first compound 0.1581 µM,0.429
same,relative viability,[4]; first compound 0.5 µM,0.376
same,relative viability,[4]; first compound 1.581 µM,0.281
same,relative viability,[4]; first compound 5 µM,0.349
same,relative viability,[5]; first compound 0.05 µM,0.438
same,relative viability,[5]; first compound 0.1581 µM,0.382
same,relative viability,[5]; first compound 0.5 µM,0.386
same,relative viability,[5]; first compound 5 µM,0.399
same,relative viability,[6]; first compound 0.05 µM,0.525
same,relative viability,[6]; first compound 0.1581 µM,0.447
same,relative viability,[6]; first compound 0.5 µM,0.508
same,relative viability,[6]; first compound 5 µM,0.557
same,relative viability,[7]; first compound 0.05 µM,0.588
same,relative viability,[7]; first compound 0.1581 µM,0.395
same,relative viability,[7]; first compound 0.5 µM,0.463
same,relative viability,[7]; first compound 5 µM,0.576
SW 900,relative viability,[1]; 0.05 µM,0.91
same,relative viability,[1]; 0.1581 µM,0.827
same,relative viability,[1]; 0.5 µM,0.638
same,relative viability,[1]; 1.581 µM,0.275
same,relative viability,[1]; 5 µM,0.176
same,relative viability,[8]; first compound 0.05 µM,0.639
same,relative viability,[8]; first compound 0.1581 µM,0.778
same,relative viability,[8]; first compound 0.5 µM,0.649
same,relative viability,[8]; first compound 1.581 µM,0.433
same,relative viability,[8]; first compound 5 µM,0.124
same,relative viability,[9]; first compound 0.05 µM,0.478
same,relative viability,[9]; first compound 0.1581 µM,0.5
same,relative viability,[9]; first compound 0.5 µM,0.499
same,relative viability,[9]; first compound 1.581 µM,0.399
same,relative viability,[9]; first compound 5 µM,0.257
same,relative viability,[2]; first compound 0.05 µM,0.183
same,relative viability,[2]; first compound 0.1581 µM,0.165
same,relative viability,[2]; first compound 0.5 µM,0.205
same,relative viability,[2]; first compound 1.581 µM,0.171
same,relative viability,[2]; first compound 5 µM,0.16
same,relative viability,[3]; first compound 0.05 µM,0.857
same,relative viability,[3]; first compound 0.1581 µM,0.818
same,relative viability,[3]; first compound 0.5 µM,0.7
same,relative viability,[3]; first compound 1.581 µM,0.41
same,relative viability,[3]; first compound 5 µM,0.169
same,relative viability,[4]; first compound 0.05 µM,0.59
same,relative viability,[4]; first compound 0.1581 µM,0.618
same,relative viability,[4]; first compound 0.5 µM,0.364
same,relative viability,[4]; first compound 1.581 µM,0.173
same,relative viability,[4]; first compound 5 µM,0.093
same,relative viability,[5]; first compound 0.05 µM,0.685
same,relative viability,[5]; first compound 0.1581 µM,0.661
same,relative viability,[5]; first compound 0.5 µM,0.277
same,relative viability,[5]; first compound 1.581 µM,0.253
same,relative viability,[5]; first compound 5 µM,0.244
same,relative viability,[6]; first compound 0.05 µM,0.545
same,relative viability,[6]; first compound 0.1581 µM,0.604
same,relative viability,[6]; first compound 0.5 µM,0.5
same,relative viability,[6]; first compound 1.581 µM,0.328
same,relative viability,[6]; first compound 5 µM,0.0938
same,relative viability,[7]; first compound 0.05 µM,0.538
same,relative viability,[7]; first compound 0.1581 µM,0.503
same,relative viability,[7]; first compound 0.5 µM,0.53
same,relative viability,[7]; first compound 1.581 µM,0.33
same,relative viability,[7]; first compound 5 µM,0.14
same,relative viability,[10]; first compound 0.05 µM,0.575
same,relative viability,[10]; first compound 0.1581 µM,0.538
same,relative viability,[10]; first compound 0.5 µM,0.565
same,relative viability,[10]; first compound 1.581 µM,0.279
same,relative viability,[10]; first compound 5 µM,0.156
same,relative viability,[11]; first compound 0.05 µM,0.453
same,relative viability,[11]; first compound 0.1581 µM,0.544
same,relative viability,[11]; first compound 0.5 µM,0.408
same,relative viability,[11]; first compound 1.581 µM,0.254
same,relative viability,[11]; first compound 5 µM,0.187
same,relative viability,[12]; first compound 0.05 µM,0.482
same,relative viability,[12]; first compound 0.1581 µM,0.447
same,relative viability,[12]; first compound 0.5 µM,0.425
same,relative viability,[12]; first compound 1.581 µM,0.354
same,relative viability,[12]; first compound 5 µM,0.256
same,relative viability,[13]; first compound 0.05 µM,0.483
same,relative viability,[13]; first compound 0.1581 µM,0.417
same,relative viability,[13]; first compound 0.5 µM,0.416
same,relative viability,[13]; first compound 1.581 µM,0.287
same,relative viability,[13]; first compound 5 µM,0.154
same,relative viability,[14]; first compound 0.05 µM,0.778
same,relative viability,[14]; first compound 0.1581 µM,0.892
same,relative viability,[14]; first compound 0.5 µM,0.601
same,relative viability,[14]; first compound 1.581 µM,0.201
same,relative viability,[14]; first compound 5 µM,0.171
